Measurements published in patent US11224609B2, “Mithramycin derivatives having increased selectivity and anti-cancer activity” (University of Kentucky Research Foundation, priority 2017, dated 2022).

Key:
[1] = system: PC-3 (prostate cancer, no ETS translocation) cell line; assay: 72 h growth inhibition (GI50) assay in PC-3; conditions: read-out: PC-3 Prostate cancer No ETS Translocation GI50; 72 h growth inhibition, PC-3 cells
[2] = system: VCaP prostate cancer cells (TMPRSS2-ERG); assay: 72 h GI50 assay in VCaP; conditions: for GI50: read-out: VCaP Prostate Cancer TMPRSS2-ERG GI50, 72 h growth inhibition, VCaP cells; for Ratio of median GI50 Prostate cells lacking TMPRSS2-ERG:VCaP: selectivity for VCaP over other prostate cancer cell lines
[3] = system: RD-ES Ewing sarcoma cells (EWS-FLI1 Type 2); assay: 72 h GI50 assay in RD-ES; conditions: read-out: RD-ES EWS-FLI1 Type 2 GI50; 72 h growth inhibition
[4] = system: 5838 Ewing sarcoma cells (EWS-ERG); assay: 72 h GI50 assay in 5838; conditions: for GI50: read-out: 5838 Ewing Sarcoma EWS-ERG GI50, 72 h growth inhibition, 5838 cells; for Ratio of median GI50 Non-Ewing sarcoma cell lines (cf Table 3):5838: selectivity for 5838 cells
[5] = system: ES-8 Ewing sarcoma cells (EWS-FLI1 Type 2); assay: 72 h GI50 assay in ES-8; conditions: read-out: ES-8 EWS-FLI1 Type 2 GI50; 72 h growth inhibition
HCT 116 cells = assay: 72 h GI50 assay in HCT 116; conditions: read-out: HCT 116 GI50; 72 h growth inhibition
[6] = system: ES-7 Ewing sarcoma cells (EWS-FLI1 Type 4); assay: 72 h GI50 assay in ES-7; conditions: read-out: ES-7 EWS-FLI1 Type 4 GI50; 72 h growth inhibition

COC(=O)C(Cc1c[nH]c2ccccc12)NC(=O)C(Cc1ccccc1)NC(=O)C(OC)C1Cc2cc3cc(OC4CC(OC5CC(O)C(O)C(C)O5)C(O)C(C)O4)c(C)c(O)c3c(O)c2C(=O)C1OC1CC(OC2CC(OC3CC(C)(O)C(O)C(C)O3)C(O)C(C)O2)C(O)C(C)O1 (stereo not drawn) [Analogue 60, MTMSA-Phe-Trp]
GI50 [1]: 1130 nM | GI50 [2]: 39 nM | Ratio of median GI50 Prostate cells lacking TMPRSS2-ERG:VCaP [2]: 25.4 | GI50 [3]: 50 nM | GI50 [4]: 149 nM | Ratio of median GI50 Non-Ewing sarcoma cell lines (cf Table 3):5838 [4]: 6.7 | GI50 [5]: 53 nM | GI50 (HCT 116 cells): 449 nM | GI50 [6]: 46 nM

COC(=O)C(Cc1c[nH]c2ccccc12)NC(=O)C(Cc1c[nH]c2ccccc12)NC(=O)C(OC)C1Cc2cc3cc(OC4CC(OC5CC(O)C(O)C(C)O5)C(O)C(C)O4)c(C)c(O)c3c(O)c2C(=O)C1OC1CC(OC2CC(OC3CC(C)(O)C(O)C(C)O3)C(O)C(C)O2)C(O)C(C)O1 (stereo not drawn) [Analogue 61, MTMSA-Trp-Trp]
GI50 [1]: 568 nM | GI50 [2]: 31 nM | Ratio of median GI50 Prostate cells lacking TMPRSS2-ERG:VCaP [2]: 18.3 | GI50 [3]: 57 nM | GI50 [4]: 53 nM | Ratio of median GI50 Non-Ewing sarcoma cell lines (cf Table 3):5838 [4]: 16.2 | GI50 [5]: 114 nM | GI50 (HCT 116 cells): 198 nM | GI50 [6]: 48 nM
